The nature of series [1]: in vivo. Particulars: Hartley, guinea pig, ip. As to the method:
(§1) The column used for chromatographic separation was a Waters Xbridge C18, 2.1 × 50 mm 2.5 µm at 30 °C. Mobile phase A: 10:40:50, 1.0% ammonium hydroxide solution in water, adjusted to pH 10.5 with formic acid: water: ACN. Mobile phase B: 10:90, 1.0% ammonium hydroxide solution in water, adjusted to pH 10.5 with formic acid: ACN. Flow rate: 250 µL/min, injection volume: 10 µL, run time: 10 min. Gradient, 100% A hold for 1 min, 0% B to 100% B over 4 min, hold 100% B for 4.5 min, 0% B at 9.51 min and equilibrate for 0.5 min.
(§2) The LTQ-XL ion trap mass spectrometer was coupled to the Accela LC system via an electrospray ionization (ESI) probe. The capillary temperature was maintained at 350 °C, sheath gas flow rate 50 arbitrary units, auxiliary gas flow rate 5 arbitrary units, sweep gas flow rate 0 arbitrary units, source voltage 3.20 kV, source current 100 µA, capillary voltage 43.00 V and tube lens 100 V. Compounds were detected in positive ion mode using selected ion monitoring (SIM). Hydroxybupropion was detected at (M+H)^+ = 256.1099, RT = 1.0 min, Rac-erythro-hydrobupropion (M+H)^+ = 242.1306, RT = 2.3 min, Rac-threo-hydrobupropion (M+H)^+ = 242.1306, RT 2.8 min, bupropion (M+H)^+ = 240.1150, RT = 2.0 min, N-methylbupropion (M+H)^+ = 254.1306, RT = 4.9 min, Rac-N-methyl-erythro-hydrobupropion (M+H)^+ = 256.1463, RT = 4.1 min and Rac-N-methyl-threo-hydrobupropion (M+H)^+ = 256.1463, RT = 4.6 min. The optimum detector conditions were found by tuning the instrument to be most sensitive for bupropion’s most abundant ion at 240 (m/z).
An additional group of guinea-pigs were used for brain collection at a single time point (20 min). The day of the experiment four guinea pigs per group were weighed then injected through the abdominal wall with bupropion given at 40 mg/kg IP and N-methylbupropion given at 42 mg/Kg IP. At time 20 min post-injection, the animals were decapitated and the brain extracted and rinsed in cold physiological saline. The whole brain was fast frozen on dry ice and placed into pre-labeled vials and stored at approximately −70 °C (deep frozen).>
(§3) Guinea pig plasma was defrosted and centrifuged. Then, plasma (50 µL) was added to a 1.5 mL microcentrifuge tube. ACN (200 µL) was added and the mixture was vortex mixed. The resulting solution was centrifuged at 8000 g for 10 min. Supernatant (100 µL) was added to HCl (100 µL, 0.001 M). The solution was vortex mixed and added to a 100 µL micro-insert for LC-MS analysis.
Guinea pig brain was defrosted. The whole brain was weighed into a beaker and 0.01 M HCl (20 mL) was added. The mixture was homogenized for 3 min on level 6 and allowed to settle for 10 min. An aliquot of the resulting suspension was centrifuged at 10,000 g for 10 min. Supernatant (250 µL) was added to ACN 750 µL. The mixture was centrifuged at 10,000 g for 10 min. 200 µL of the supernatant was added to 800 µL water. The clear solution was vortex mixed and analyzed by LC-MS.

Series [2] in a line: in vivo. Particulars: guinea pig; for Cmax / Tmax / AUC(0-t) / half-life: male, Hartley albino. The procedure: as §1, §2
After acclimatization, male Hartley albino guinea-pigs, weighing 280–320 g were deprived of food for 16 h with free access to water (food withdrawal at 04:00 PM the day before). On the day of the experiment five guinea pigs per group were weighed then injected through the abdominal wall or fed by oral gavage with bupropion given at 40 mg/kg intraperitoneum. A second group of five guinea pigs were weighed then injected through the abdominal wall or fed by oral gavage with N-methyl bupropion given at 42 mg/Kg intraperitoneum.
Guinea pigs were placed under isoflurane anesthesia and approximately 100 µL of blood was collected using hematocrit capillaries or by cardiac puncture (terminal) into dry heparin/Li containing tubes before administration and then at five time points post-administration (0, 20, 40, 60, 120 and 180 min) for intraperitoneal study and seven time-points post administration (0, 20, 40, 60, 120, 180, 240 and 360 min) for oral study. After blood was collected, the tubes were inverted several times and placed on ice. The samples were centrifuged within 30 min maximum after sampling at 2205 g at 4 °C for 10 min. Plasma was transferred to polypropylene tubes and frozen with minimal delay at approximately −70 °C.
as §3
Pharmacokinetic calculations were determined on Graphpad Prism software. Michaelis-Menten parameters were determined by non-linear regression analysis. The pharmacokinetic data was interpreted using a one-compartment model where the amount of drug present in the body at any given time t [A(t)] is described in Equation (1).
Drug concentration: A(t) = Cp(t)V(1) where Cp(t) and V are the drug concentration in the plasma and the apparent volume of distribution respectively. At least five sample time points were collected including at least one time point before tmax and three time points during the terminal phase for half-life estimation.

Series [3] can be described thus: N-demethylation of N-methylbupropion to bupropion, substrate saturation study. The format is in vitro ADME. The note with it: 0.1 mg/mL guinea pig S9 liver fraction, 50–1000 μM, 20 min, 37 °C, n = 3. As to the method:
Guinea pig S9 liver fraction, NADPH regenerating solutions A and B were thawed rapidly to 37 °C, then kept on wet ice until ready for use. A number of different concentration substrate solutions were prepared were the maximum concentration of DMSO was 1%, and the concentration of guinea pig S9 liver fraction, NADP regenerating system solution B and phosphate buffer was fixed. After incubation for 5 min, NADP regenerating system solution A was added and the metabolism was initiated. Final volume was 100 μL. The tube was inverted twice and vortex mixed. The final concentrations in this solution was 50–1000 μM prodrug, 0.1 mg/mL guinea-pig S9 liver fraction, 1.3 mM NADP^+, 0.4 U/mL glucose-6-phosphate dehydrogenase and 1.0% DMSO. This solution was incubated for 20 min at 37 °C. The reaction was quenched by addition of 100 μL of ACN. […] The supernatant was analysed by LC-MS analysis.
Pharmacokinetic calculations were determined on Graphpad Prism software.
In selecting a guinea pig animal model for an in vivo study, it was prudent to first verify if an in vitro guinea pig model would carry out the same metabolic transformations. […] N-methylbupropion and bupropion concentrations were determined by LC-MS. […] Other unknown minor metabolites of N-methylbupropion were also detected but were not quantified at this stage. These were determined during the in vivo stage, discussed below.

In series [4] the test system is dopamine active transport (DAT). Also on record: method as in preceding paper (paper 1 of this series). The note with it: in vitro; ref preceding paper (paper 1 of this series); cited from earlier work.
Series [5] has as its system norepinephrine transport (NET). Set-up: method as in preceding paper (paper 1 of this series). The note with it: in vitro; ref preceding paper (paper 1 of this series); cited from earlier work.
Series [6] can be described thus: in vivo. In kind it is in vivo. Particulars: guinea pig; for concentration at 20 min / Kp at 20 min: Hartley, in vivo. As to the method:
Guinea pig plasma was defrosted and centrifuged.
Guinea pig brain was defrosted. […] Supernatant (250 µL) was added to ACN 750 µL.
Brain levels were determined on a separate group.

The conditions of series [7]: pH dependence, cited from earlier work.
[8] abbreviates: ip, 42 mg/kg, Mean Cmax ± SD, plasma analyte after N-Methylbupropion dosed at 42 mg/Kg IP, n = 5.
The mark [9] stands for this setting: ip, 42 mg/kg, tmax, plasma analyte after N-Methylbupropion dosed at 42 mg/Kg IP, n = 5.
[10] abbreviates: 20 min post dose of 42 mg/Kg N-methyl bupropion via oral gavage, read-out: Plasma levels.
The mark [11] stands for this setting: 20 min post dose of 42 mg/Kg N-methyl bupropion via oral gavage, read-out: Brain levels.
The mark [12] stands for this setting: 20 min post dose of 42 mg/Kg N-methyl bupropion via oral gavage, read-out: Brain/plasma ratio.
[13] abbreviates: ip, 40 mg/kg, Cmax, plasma analyte after dosing bupropion 40 mg/Kg IP.
[14] abbreviates: ip, 40 mg/kg, tmax, plasma analyte after dosing bupropion 40 mg/Kg IP.
Setting [15] is: 20 min post dose of 40 mg/Kg bupropion via oral gavage, read-out: Brain levels.
The mark [16] stands for this setting: 20 min post dose of 40 mg/Kg bupropion via oral gavage, read-out: Brain/plasma ratio.
[17] abbreviates: 20 min post dose of 40 mg/Kg bupropion via oral gavage, read-out: Plasma levels.

Several values for one entry are separate records, joined by “and”; a condition that tells them apart may be missing. Equal entries are not always repeated. Where two headings read alike, the source gives them in different places.

With `CC(C(=O)c1cccc(Cl)c1)N(C)C(C)(C)C` (stereo not drawn) [N-Me Bup, N-methylbupropion], the Kp at 20 min in series [1] (42 mg/kg) is 20.2. The compound also registered a Cmax in series [2] (setting [8]) of 180 ± 80 ng/mL. Besides, in series [2] (setting [9]), the Tmax turned out to be 19.8 min. In series [2] (plasma analyte after N-Methylbupropion dosed at 42 mg/Kg via oral gavage, n = 5), the t½ entry is on record as “<LOQ”. The Vmax in series [3] is 419.2 ± 13.65 pmol/min/mg S9. Also, the “activity at DAT compared to bupropion” value in series [4] is “lower activity”. In series [5], the “activity at NET compared to bupropion” value was “lower activity”. Moreover, in series [6] (20 min post dose of 42 mg/Kg N-methyl bupropion via oral gavage), the Brain/plasma ratio entry is “<LOQ”. Moreover, the Brain levels entry in series [6] (20 min post dose of 42 mg/Kg N-methyl bupropion via oral gavage, listed as N-MeBup, 42 mg/kg) was “<LOQ”; in series [6] (20 min post dose of 42 mg/Kg N-methyl bupropion via oral gavage, listed as N-methylbupropion, 42 mg/kg), “below the limit of quantitation”. Besides, in series [6] (setting [10]), the concentration at 20 min turned out to be 20 ng/mL.

Consider `C[C@H]([C@H](O)c1cccc(Cl)c1)N(C)C(C)(C)C` (racemic) [N-Me THB, Rac-N-methyl-threo-hydrobupropion], for which the Kp at 20 min was 12.6 in series [1] (42 mg/kg) and 14.2 in series [6] (setting [12]). The Cmax in series [2] (setting [8]) amounted to 80 ± 20 ng/mL. Besides, in series [2] (setting [9]), the Tmax was 19.8 min. For the same compound, the figures for the concentration at 20 min in series [6] (setting [11]) and in series [6] (setting [10]) were 570 ng/g and 40 ng/mL, respectively.

Turning to `CC(NC(C)(C)C)C(=O)c1cccc(Cl)c1` (stereo not drawn) [Bup, Bupropion], the Kp at 20 min in series [1] (40 mg/kg) amounted to 11.2; in series [1] (42 mg/kg), 17.1; in series [6] (setting [16]) it was 4.78; in series [6] (setting [12]), 9.2. Besides, the Cmax in series [2] (setting [13]) came out at 869 ± 190 ng/mL; in series [2] (ip, 40 mg/kg, Mean Cmax ± SD, plasma analyte after Bupropion dosed at 40 mg/Kg IP, n = 5), 870 ± 190 ng/mL; in series [2] (setting [8]) it was 380 ± 90 ng/mL. For the same compound, the Tmax is 19.8 min in series [2] (ip, 40 mg/kg, tmax, plasma analyte after Bupropion dosed at 40 mg/Kg IP, n = 5); 20 min in series [2] (setting [14]); 19.8 min in series [2] (setting [9]). In addition, in series [7] (aqueous), the stability of freebase entry is “suffers from hydrolysis and oxidation at pH > 5”. The “sample stability in plasma” value in series [7] (plasma samples, ref 14,15 (supplement)) is recorded as “stable at low pH”. Also, the concentration at 20 min in series [6] (setting [15]) worked out at 430 ng/g; in series [6] (setting [17]), 90 ng/mL; in series [6] (setting [11]), 460 ng/g; in series [6] (setting [10]) it was 50 ng/mL.

For the compound `C[C@H]1NC(C)(C)CO[C@]1(O)c1cccc(Cl)c1` (relative stereo) [BupOH, hydroxybupropion], the Kp at 20 min in series [1] (40 mg/kg) was 6.3; in series [1] (42 mg/kg) it was 7.61; in series [6] (po, 40 mg/kg), 0.5; in series [6] (po, 42 mg/kg), 0.4. Besides, the Tmax in series [2] (in vivo) is 60 min; in series [2] (ip, 40 mg/kg) it was 39.6 min; in series [2] (setting [9]) it was 60 min. This compound also showed an AUC(0-t) in series [2] (ip, 40 mg/kg) of 2330 ng·h/mL. In series [2] (ip, 40 mg/kg), this compound had a half-life of 408 min. Further, the Cmax in series [2] (ip, 40 mg/kg, Mean Cmax ± SD) turned out to be 950 ± 170 ng/mL; in series [2] (setting [8]), 720 ± 140 ng/mL. Further, the concentration at 20 min in series [6] (po, 40 mg/kg) was 370 ng/g and 730 ng/mL; in series [6] (po, 42 mg/kg), 220 ng/g and 550 ng/mL.

In the case of `C[C@@H](NC(C)(C)C)[C@H](O)c1cccc(Cl)c1` [THB, threo-hydrobupropion], the Kp at 20 min was 6.54 in series [1] (40 mg/kg), 12.1 in series [1] (42 mg/kg), 1.17 in series [6] (setting [16]) and 1.15 in series [6] (setting [12]). Further, the Tmax in series [2] (in vivo, 42 mg/Kg) was 60 min; in series [2] (ip, 40 mg/kg, tmax), 19.8 min; in series [2] (setting [14]), 20 min; in series [2] (setting [9]), 60 min. Besides, the AUC(0-t) in series [2] (ip, 40 mg/kg) came out at 2860 ng·h/mL. Besides, the half-life in series [2] (ip, 40 mg/kg) was 198 min. The Cmax in series [2] (setting [13]) is 1230 ± 307 ng/mL; in series [2] (ip, 40 mg/kg, Mean Cmax ± SD), 1220 ± 310 ng/mL; in series [2] (setting [8]) it was 970 ± 280 ng/mL. The concentration at 20 min in series [6] (setting [15]) came to 970 ng/g; in series [6] (setting [17]), 830 ng/mL; in series [6] (setting [11]) it was 620 ng/g; in series [6] (setting [10]), 540 ng/mL.

The term Cmax denotes the peak of the concentration-time curve. As a reminder, the Tmax is the time from dosing to the highest level. The AUC(0-t) is the area under the concentration-time curve up to a stated or last time point. A low value points to less exposure. A word on the half-life: it is how long it takes for the measured level to halve.
